Data set [1] deals with NMDA (10 μM) induced functional excitotoxicity, hippocampal slices. In words: NMDA (10 μM) induced functional excitotoxicity in rat hippocampal slices. The following applies: for neuroprotection against NMDA induced functional excitotoxicity: hippocampal slices.
In data set [2] the target is T1, sigma-1 (Homo sapiens, UniProt Q99720). The data set is described as follows: sigma-1 agonistic activity.
The next data set has as its system hippocampal slices. The data set is described as follows: in vitro evaluation of the compounds' own functional excitotoxicity on hippocampal slices.
Data set [3] deals with N-methyl-D-aspartate (NMDA) receptors. In words: NMDA receptor affinity. Format: binding.
The test system of a further data set is brain ischemia. The data set is described as follows: brain ischemia in mice. Format: in vivo. The following applies: for neuroprotection against mice brain ischemia: dose not given.
A further data set addresses sigma-2 receptors (Homo sapiens, UniProt Q5BJF2). The data set is described as follows: sigma-2 receptor affinity (binding).
Data set [4] concerns mitochondrial toxicity of pentylenetetrazole (PTZ). In words: latency of lethality of pentylenetetrazole (PTZ) in mice. The format is in vivo. The following applies: PTZ 130 mg/kg ip.
A further data set has as its system PTZ convulsions. The data set is described as follows: Pentylenetetrazole (PTZ) convulsions in mice. The settings on record: 10 to 30 mg/kg po. Format: in vivo.
Data set [5] has as its target T2, M3 muscarinic receptors (Cavia porcellus, UniProt H0W1Z3).
T2 construct: from tissue; host or cells: guinea pig ileum
The data set is described as follows: functional M3 antagonism, guinea pig ileum.

The target in data set [6] is T3, M2 muscarinic receptors (Cavia porcellus, UniProt H0VRN8).
T3 construct: from tissue; host or cells: guinea pig left atria
T3 sequence (H0VRN8 1-466): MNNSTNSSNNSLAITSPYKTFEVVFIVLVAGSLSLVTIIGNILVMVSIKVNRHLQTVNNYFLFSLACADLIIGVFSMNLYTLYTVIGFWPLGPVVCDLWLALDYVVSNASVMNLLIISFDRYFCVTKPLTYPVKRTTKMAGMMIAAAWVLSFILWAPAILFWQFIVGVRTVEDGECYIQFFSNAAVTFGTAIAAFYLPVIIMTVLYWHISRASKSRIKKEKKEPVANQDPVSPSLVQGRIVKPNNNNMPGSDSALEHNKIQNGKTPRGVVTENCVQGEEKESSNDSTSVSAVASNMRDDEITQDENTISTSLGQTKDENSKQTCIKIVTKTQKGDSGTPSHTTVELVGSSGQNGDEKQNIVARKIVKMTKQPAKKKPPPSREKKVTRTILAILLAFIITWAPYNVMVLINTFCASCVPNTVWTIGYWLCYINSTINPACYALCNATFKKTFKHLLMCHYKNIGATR
In words: functional M2 antagonism, guinea pig left atria.

Data set [7] concerns M2 and M3 muscarinic receptors in the periphery. The data set is described as follows: antagonism of peripheral M2 and M3 muscarinic receptors in mice. Format: in vivo. The settings on record: from 1 to 10 mg/kg ip.
A short description of data set [8]: memory perturbations in mice. The following applies: 0.1 to 45 mg/kg, per os.
For the next data set, the system named is MES convulsions. The data set is described as follows: Maximal Electrochoc Seizures (MES) in mice. The following applies: 10 to 30 mg/kg po. The format is in vivo.
Data set [9] has as its system Aβ25-35 induced amnesia and neurotoxicity. In words: Aβ25-35 induced amnesia and neurotoxicity in mice (Y-maze, step-through). The format is in vivo.
Data set [10] deals with T4, M2 muscarinic receptors (Homo sapiens, UniProt P08172).
T4 sequence (P08172 1-466): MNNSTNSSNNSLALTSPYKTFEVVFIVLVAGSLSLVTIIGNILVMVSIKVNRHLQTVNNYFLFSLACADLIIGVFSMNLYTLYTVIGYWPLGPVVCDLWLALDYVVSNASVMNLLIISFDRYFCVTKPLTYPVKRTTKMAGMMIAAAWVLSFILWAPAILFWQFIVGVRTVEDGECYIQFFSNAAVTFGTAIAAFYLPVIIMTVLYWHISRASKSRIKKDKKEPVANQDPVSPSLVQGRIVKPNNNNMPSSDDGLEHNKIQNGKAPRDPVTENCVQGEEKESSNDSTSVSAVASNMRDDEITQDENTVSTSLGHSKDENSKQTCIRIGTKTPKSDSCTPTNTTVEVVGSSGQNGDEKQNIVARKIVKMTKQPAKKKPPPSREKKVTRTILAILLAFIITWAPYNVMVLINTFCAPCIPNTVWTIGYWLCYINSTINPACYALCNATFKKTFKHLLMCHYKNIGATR
In words: M2 muscarinic receptor affinity. Format: binding.

Another data set deals with sodium channels. The data set is described as follows: sodium channel affinity. Format: binding.
The next data set deals with immobility. The data set is described as follows: forced swimming (Porsolt) test in mice. Format: in vivo. The settings on record: from 5 mg/kg po.
For data set [11], the target named is T1, sigma-1. In words: sigma-1 receptor affinity (binding).
Data set [12] deals with M3 muscarinic receptors (Homo sapiens, UniProt P20309). The data set is described as follows: M3 muscarinic receptor affinity. The format is binding.

“Also recorded” adds a separate entry of the source.

T1 sequence (Q99720 whole entry): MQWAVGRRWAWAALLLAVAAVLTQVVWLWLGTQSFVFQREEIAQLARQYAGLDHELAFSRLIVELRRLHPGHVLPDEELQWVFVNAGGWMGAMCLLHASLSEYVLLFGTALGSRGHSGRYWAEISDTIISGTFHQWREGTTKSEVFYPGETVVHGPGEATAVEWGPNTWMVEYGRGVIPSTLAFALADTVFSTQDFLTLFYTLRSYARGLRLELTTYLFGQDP
Chain of sigma-2 receptors (Q5BJF2 whole entry): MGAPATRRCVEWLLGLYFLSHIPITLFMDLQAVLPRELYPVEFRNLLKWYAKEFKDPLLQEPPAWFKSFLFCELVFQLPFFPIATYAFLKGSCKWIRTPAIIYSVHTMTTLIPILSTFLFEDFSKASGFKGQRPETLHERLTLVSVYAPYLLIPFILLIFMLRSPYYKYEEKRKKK
Chain of M3 muscarinic receptors (Homo sapiens, UniProt P20309) (P20309 whole entry): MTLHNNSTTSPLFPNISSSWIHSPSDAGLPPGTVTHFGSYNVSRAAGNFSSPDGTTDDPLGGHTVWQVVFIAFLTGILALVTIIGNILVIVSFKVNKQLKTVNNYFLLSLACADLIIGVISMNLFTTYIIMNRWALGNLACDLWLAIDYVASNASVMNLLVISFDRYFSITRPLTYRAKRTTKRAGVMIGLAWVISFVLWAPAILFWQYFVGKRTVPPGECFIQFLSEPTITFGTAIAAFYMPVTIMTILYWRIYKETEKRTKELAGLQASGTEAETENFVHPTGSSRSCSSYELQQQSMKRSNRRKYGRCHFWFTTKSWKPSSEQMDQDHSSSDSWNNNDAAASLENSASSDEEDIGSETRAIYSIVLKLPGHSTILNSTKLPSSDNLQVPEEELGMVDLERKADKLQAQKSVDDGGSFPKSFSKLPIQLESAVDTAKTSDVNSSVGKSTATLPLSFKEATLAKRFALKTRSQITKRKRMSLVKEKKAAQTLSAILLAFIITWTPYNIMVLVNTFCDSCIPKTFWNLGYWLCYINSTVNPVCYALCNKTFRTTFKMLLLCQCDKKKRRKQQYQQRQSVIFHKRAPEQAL
T2 sequence (H0W1Z3 1-590): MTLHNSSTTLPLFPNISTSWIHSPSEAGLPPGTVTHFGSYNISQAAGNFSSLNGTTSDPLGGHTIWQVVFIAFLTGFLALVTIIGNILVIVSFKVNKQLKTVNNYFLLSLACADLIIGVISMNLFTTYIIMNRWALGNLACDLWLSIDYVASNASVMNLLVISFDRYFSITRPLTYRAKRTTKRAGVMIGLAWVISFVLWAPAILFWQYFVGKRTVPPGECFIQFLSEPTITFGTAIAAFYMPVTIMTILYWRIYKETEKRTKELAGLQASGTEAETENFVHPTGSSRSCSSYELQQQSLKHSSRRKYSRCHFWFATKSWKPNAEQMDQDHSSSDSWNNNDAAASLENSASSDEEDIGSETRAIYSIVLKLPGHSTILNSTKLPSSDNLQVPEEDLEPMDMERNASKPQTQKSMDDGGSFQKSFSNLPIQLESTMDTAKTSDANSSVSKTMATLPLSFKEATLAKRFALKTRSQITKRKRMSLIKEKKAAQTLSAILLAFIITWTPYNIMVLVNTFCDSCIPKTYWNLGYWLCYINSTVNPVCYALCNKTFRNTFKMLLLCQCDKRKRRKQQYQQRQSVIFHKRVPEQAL

As to `CN(C)CC1COC(c2ccccc2)(c2ccccc2)C1` (stereo not shown) [AE14, tetrahydro-N,N-dimethyl-5,5-diphenyl-3-furanomethanamine], the “neuroprotection against NMDA induced functional excitotoxicity” value in [1] is “no significant neuroprotection”. Besides, the sigma-1 agonistic activity entry at sigma-1 [2] is “high and selective sigma-1 agonistic activity”. In the data set on hippocampal slices, the “excitotoxic effects of the compound itself (functional excitotoxicity)” value (shortened to “excitotoxic effects”) is recorded as “significant excitoneurotoxic effects”. Also, the IC50 in [3] is above 10 µM. For the same molecule, the “neuroprotection against mice brain ischemia” value with brain ischemia was “inactive”.

Regarding `CN(C)CC1CCOC1(c1ccccc1)c1ccccc1` (stereo not shown) [AE37, tetrahydro-N,N-dimethyl-2,2-diphenyl-3-furanomethanamine], in data set [1], the “neuroprotection against NMDA induced functional excitotoxicity” value is “no significant neuroprotection”. In addition, at sigma-1 [2], the sigma-1 agonistic activity result is “sub-micromolar and selective sigma-1 agonism”. Further, the “excitotoxic effects” value in the data set with hippocampal slices is “significant excitoneurotoxic effects”. In data set [3], the concentration for half-maximal inhibition (IC50) turned out to be 8 µM. Further, the “neuroprotection against mice brain ischemia” value in the data set with brain ischemia was “inactive”.

On to `CNCC1CCOC1(c1ccccc1)c1ccccc1` (stereo not shown) [AE37Met, tetrahydro-N-methyl-2,2-diphenyl-3-furanomethanamine], for which the 50% inhibitory concentration (IC50) was above 10 µM on sigma-2 receptors; 2.77 µM at M2 muscarinic receptors [10]; 5.7 µM in the data set with sodium channels; 1 µM in [3]; 0.67 µM on sigma-1 [11]; 4.35 µM on M3 muscarinic receptors [12]. Further, in data set [1] (AE37Met 1 to 10 μM, rat hippocampal slices), the “antagonistic effects against NMDA induced functional excitotoxicity” value is “first antagonistic effects”. Moreover, the “neuroprotection against NMDA induced functional excitotoxicity” value in [1] is “high dose (concentration)-dependant neuroprotection”. Also, the “increase of latency of lethality of PTZ” value worked out at 3.10 fold in [4] (AE37Met 3.10 mg/kg po (so in the source)) and 18 fold in data set [4] (AE37Met 30 mg/kg po). Also, the “protection against PTZ convulsions” value with PTZ convulsions is reported as “protected; also recorded: high protective effects”. The “concentration from which significant functional antagonism (M3)” value at M3 muscarinic receptors [5] was at least 3.0 µM. Also, the “concentration from which significant functional antagonism (M2)” value at M2 muscarinic receptors [6] is at least 3.0 µM. For the same molecule, in data set [7], the “antagonistic effects on M2 and M3 muscarinic receptors in the periphery” value is on record as “antagonistic effects”. Also, the memory perturbations result in data set [8] is given as “no memory perturbations”. Besides, the “protection against MES convulsions” value in the data set on MES convulsions is given as “protected; also recorded: high protective effects”. The “antagonism of Aβ25-35 induced amnesia and neurotoxicity” value in data set [9] (0.3 to 3 mg/kg ip, mice) is listed as “antagonized”. In addition, the “antiamnesic action on co-administration with IAChEases” value in [9] (co-administered with Rivastigmine or Donepezil, Y-maze, step-through, intracerebral soluble amyloid 25-35, mice) is reported as “higher than the sum of the antiamnesic effects”. Also, the “excitotoxic effects” value in the data set on hippocampal slices is on record as “no excitotoxic effects”. Further, the “anti-immobility activity in the Porsolt test” value in the data set with immobility is “high anti-immobility activity”. The “protection against brain ischemia” value with brain ischemia (5 to 15 mg/kg ip) is reported as “protected; also recorded: significant antagonism”.

The values are drawn from patent US20160009674A1, “PROTOTYPICAL BRAIN PROTECTIVE ACTIVITY OF TETRAHYDRO-N-METHYL-2,2-DIPHENYL-3-FURANOMETHANAMINE (AE37MET)” (priority 2013, published 2016).
